The record followed here is ChEMBL document CHEMBL5212743, “Selectivity Literature for EUbOPEN Chemogenomics Library wave 3” (2023).

For assay [1], the target named is Serine/threonine-protein kinase 33 (Homo sapiens, UniProt Q9BYT3). As to the kind of experiment: Selectivity interaction (Enzymatic assay) EUB0000608a STK33.
Assay [2] has as its target T1, Cyclin-G-associated kinase (Homo sapiens, UniProt O14976). As to the kind of experiment: Selectivity interaction (Enzymatic assay) EUB0000608a GAK.
Assay [3] concerns the target Serine/threonine-protein kinase PLK1 (Homo sapiens, UniProt P53350). As to the kind of experiment: Selectivity interaction (Enzymatic assay) EUB0000608a PLK1.
In assay [4] the target is Serine/threonine-protein kinase PLK3 (Homo sapiens, UniProt Q9H4B4). As to the kind of experiment: Selectivity interaction (Enzymatic assay) EUB0000608a PLK3.
The target in assay [5] is Serine/threonine-protein kinase PLK4 (Homo sapiens, UniProt O00444). As to the kind of experiment: Selectivity interaction (Enzymatic assay) EUB0000608a PLK4.
Assay [6] has as its target Synaptic vesicular amine transporter (Homo sapiens, UniProt Q05940). In words: Selectivity interaction (Enzyme and Receptor panel (MSD Pharma/Taiwan)) EUB0000750a SLC18A2.
The target of assay [7] is Inhibitor of nuclear factor kappa-B kinase subunit epsilon (Homo sapiens) (UniProt Q14164). In words: Selectivity interaction (KinomeScan (DiscoverX)) EUB0000750a IKBKE. Particulars: at 1 µM.
In assay [8] the target is Epidermal growth factor receptor (Homo sapiens, UniProt P00533). As to the kind of experiment: Selectivity interaction (KinomeScan (DiscoverX)) EUB0000750a EGFR. As to conditions: at 1 µM.
Assay [9] deals with RAC-alpha serine/threonine-protein kinase (Homo sapiens, UniProt P31749). In words: Selectivity interaction (KinomeScan (DiscoverX)) EUB0000750a AKT1. Particulars: at 1 µM.
Chain of RAC-alpha serine/threonine-protein kinase (P31749 whole entry, canonical isoform): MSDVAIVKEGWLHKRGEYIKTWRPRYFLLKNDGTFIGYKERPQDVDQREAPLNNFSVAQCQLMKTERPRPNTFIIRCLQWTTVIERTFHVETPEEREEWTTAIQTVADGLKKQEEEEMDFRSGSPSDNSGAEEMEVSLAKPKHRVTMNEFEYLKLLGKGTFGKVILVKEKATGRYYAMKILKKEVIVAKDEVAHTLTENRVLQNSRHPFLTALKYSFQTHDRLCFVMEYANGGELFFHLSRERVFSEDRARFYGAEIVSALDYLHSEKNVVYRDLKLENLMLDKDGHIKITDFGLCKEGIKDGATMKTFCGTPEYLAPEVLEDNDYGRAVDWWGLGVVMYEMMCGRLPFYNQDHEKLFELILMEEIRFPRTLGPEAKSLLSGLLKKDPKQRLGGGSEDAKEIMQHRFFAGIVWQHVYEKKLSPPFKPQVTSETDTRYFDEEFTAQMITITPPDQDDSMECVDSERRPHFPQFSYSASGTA
The target of assay [10] is Phosphatidylinositol 4,5-bisphosphate 3-kinase catalytic subunit alpha isoform (Homo sapiens, UniProt P42336). In words: Selectivity interaction (KinomeScan (DiscoverX)) EUB0000750a PIK3CA. Particulars: at 1 µM.
Assay [11] concerns the target Citron Rho-interacting kinase (Homo sapiens) (UniProt O14578). In words: Selectivity interaction (KinomeScan (DiscoverX)) EUB0000750a CIT. Particulars: at 1 µM.
Assay [12] addresses T2, Serine/threonine-protein kinase LATS2 (Homo sapiens) (UniProt Q9NRM7).
T2 sequence (whole entry): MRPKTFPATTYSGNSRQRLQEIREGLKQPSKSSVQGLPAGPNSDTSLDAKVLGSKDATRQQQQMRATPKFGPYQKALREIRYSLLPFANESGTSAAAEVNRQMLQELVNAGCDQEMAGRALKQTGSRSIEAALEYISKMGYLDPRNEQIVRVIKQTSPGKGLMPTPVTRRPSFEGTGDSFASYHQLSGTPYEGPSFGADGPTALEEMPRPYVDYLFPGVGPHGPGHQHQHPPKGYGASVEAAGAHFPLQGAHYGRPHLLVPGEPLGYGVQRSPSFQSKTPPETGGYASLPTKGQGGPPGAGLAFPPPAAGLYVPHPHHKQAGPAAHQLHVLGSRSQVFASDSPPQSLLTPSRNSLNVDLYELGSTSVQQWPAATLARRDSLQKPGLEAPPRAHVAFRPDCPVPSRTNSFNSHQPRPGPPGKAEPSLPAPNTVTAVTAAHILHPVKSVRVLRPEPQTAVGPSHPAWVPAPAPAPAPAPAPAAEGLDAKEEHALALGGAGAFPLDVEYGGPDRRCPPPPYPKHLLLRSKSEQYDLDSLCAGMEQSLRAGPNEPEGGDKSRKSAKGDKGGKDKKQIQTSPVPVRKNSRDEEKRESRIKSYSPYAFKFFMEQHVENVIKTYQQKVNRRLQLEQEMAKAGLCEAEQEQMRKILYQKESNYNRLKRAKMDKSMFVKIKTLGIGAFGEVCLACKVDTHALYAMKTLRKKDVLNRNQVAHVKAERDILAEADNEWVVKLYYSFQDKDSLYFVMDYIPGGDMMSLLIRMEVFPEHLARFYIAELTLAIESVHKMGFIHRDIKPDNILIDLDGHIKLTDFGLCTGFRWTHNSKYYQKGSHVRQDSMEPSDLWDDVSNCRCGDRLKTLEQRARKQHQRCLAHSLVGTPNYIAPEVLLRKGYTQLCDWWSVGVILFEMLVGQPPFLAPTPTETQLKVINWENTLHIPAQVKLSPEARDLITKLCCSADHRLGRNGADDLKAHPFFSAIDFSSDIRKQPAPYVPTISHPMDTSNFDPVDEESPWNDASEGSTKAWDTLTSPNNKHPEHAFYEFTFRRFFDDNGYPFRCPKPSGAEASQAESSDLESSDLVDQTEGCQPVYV
In words: Selectivity interaction (KinomeScan (DiscoverX)) EUB0000750a LATS2. Particulars: at 1 µM.

For assay [13], the target named is Serine/threonine-protein kinase RIO3 (Homo sapiens) (UniProt O14730). In words: Selectivity interaction (Ambit kinase binding assay panel) EUB0000609a RIOK3. As to conditions: at 10 µM.
The target in assay [14] is T3, Dual specificity protein kinase CLK1 (Homo sapiens, UniProt P49759). In words: Selectivity interaction (Ambit kinase binding assay panel) EUB0000609a CLK1. As to conditions: at 10 µM.
Target sequence in this assay (P49759 whole entry, looked up): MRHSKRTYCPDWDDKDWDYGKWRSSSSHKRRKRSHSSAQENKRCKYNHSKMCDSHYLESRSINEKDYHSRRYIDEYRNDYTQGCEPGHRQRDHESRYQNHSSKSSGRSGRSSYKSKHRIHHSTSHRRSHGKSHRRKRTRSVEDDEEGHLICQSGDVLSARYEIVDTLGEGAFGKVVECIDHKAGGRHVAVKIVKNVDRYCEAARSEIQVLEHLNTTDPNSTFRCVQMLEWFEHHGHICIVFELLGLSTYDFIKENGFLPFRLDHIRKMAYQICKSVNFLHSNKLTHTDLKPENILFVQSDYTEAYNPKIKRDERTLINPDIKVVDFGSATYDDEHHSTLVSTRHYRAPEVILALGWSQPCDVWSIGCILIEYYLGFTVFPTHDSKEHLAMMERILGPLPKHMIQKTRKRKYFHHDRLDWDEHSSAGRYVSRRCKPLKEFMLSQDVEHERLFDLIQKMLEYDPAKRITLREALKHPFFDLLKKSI
Assay [15] has as its target T3, Dual specificity protein kinase CLK1. As to the kind of experiment: Selectivity interaction (Enzymatic assay) EUB0000609a CLK1.
Target sequence in this assay (P49759 whole entry): as the sequence (P49759 whole entry, looked up) above
The target of assay [16] is T4, Mitogen-activated protein kinase 1 (Homo sapiens, UniProt P28482). As to the kind of experiment: Selectivity interaction (Ambit kinase binding assay panel) EUB0000609a MAPK1. As to conditions: at 10 µM.
T4 sequence (P28482 whole entry): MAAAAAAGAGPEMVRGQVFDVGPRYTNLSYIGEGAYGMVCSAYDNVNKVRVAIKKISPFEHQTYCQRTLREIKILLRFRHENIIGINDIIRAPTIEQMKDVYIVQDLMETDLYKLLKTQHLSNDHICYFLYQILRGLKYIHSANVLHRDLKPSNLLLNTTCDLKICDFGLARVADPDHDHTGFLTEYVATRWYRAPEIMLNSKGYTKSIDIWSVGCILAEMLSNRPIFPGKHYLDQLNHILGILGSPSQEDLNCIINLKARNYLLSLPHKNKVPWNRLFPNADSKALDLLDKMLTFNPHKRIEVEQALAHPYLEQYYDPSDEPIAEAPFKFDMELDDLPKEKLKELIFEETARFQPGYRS
In assay [17] the target is T4, Mitogen-activated protein kinase 1. In words: Selectivity interaction (Enzymatic assay) EUB0000609a MAPK1.
Assay [18] concerns the target Mitogen-activated protein kinase 8 (Homo sapiens, UniProt P45983). In words: Selectivity interaction (Ambit kinase binding assay panel) EUB0000609a MAPK8. Particulars: at 10 µM.
Assay [19] addresses T5, Cyclin-G-associated kinase (Homo sapiens) (UniProt O14976).
T5 sequence (whole entry): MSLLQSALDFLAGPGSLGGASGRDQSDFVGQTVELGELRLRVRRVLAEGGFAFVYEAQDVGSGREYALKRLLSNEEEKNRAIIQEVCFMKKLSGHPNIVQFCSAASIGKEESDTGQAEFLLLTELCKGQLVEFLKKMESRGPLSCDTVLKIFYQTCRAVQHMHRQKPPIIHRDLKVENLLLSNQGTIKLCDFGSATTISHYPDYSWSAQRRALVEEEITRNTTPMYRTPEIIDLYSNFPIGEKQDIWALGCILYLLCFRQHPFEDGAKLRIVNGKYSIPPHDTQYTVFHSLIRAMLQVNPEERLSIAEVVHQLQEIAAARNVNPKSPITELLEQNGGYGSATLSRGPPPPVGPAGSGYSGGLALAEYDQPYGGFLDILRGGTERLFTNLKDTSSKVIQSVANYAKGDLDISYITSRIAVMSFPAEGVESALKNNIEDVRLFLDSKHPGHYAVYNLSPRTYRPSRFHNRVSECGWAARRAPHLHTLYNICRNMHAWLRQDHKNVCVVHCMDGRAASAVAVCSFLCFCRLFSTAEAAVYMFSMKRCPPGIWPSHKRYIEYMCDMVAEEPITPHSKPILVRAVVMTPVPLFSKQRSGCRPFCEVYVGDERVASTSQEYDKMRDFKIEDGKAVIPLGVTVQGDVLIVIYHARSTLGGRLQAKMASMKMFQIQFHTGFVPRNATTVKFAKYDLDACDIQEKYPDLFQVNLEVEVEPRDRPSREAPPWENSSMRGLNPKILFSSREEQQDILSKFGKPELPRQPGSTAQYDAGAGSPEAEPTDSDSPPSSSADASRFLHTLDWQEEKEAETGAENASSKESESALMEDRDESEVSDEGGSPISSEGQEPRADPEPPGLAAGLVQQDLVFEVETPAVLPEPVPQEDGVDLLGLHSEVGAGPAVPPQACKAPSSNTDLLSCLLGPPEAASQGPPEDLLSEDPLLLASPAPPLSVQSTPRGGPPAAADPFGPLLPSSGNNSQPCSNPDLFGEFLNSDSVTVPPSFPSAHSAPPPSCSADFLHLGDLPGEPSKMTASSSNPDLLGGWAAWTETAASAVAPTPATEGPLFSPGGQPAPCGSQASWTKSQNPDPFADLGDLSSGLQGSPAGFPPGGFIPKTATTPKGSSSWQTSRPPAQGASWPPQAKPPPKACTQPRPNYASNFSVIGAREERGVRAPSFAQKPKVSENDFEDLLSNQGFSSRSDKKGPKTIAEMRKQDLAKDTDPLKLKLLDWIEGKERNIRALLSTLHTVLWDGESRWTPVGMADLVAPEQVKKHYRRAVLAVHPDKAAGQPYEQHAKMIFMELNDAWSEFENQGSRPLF
In words: Selectivity interaction (Ambit kinase binding assay panel) EUB0000609a GAK. As to conditions: at 10 µM.

The target of assay [20] is T1, Cyclin-G-associated kinase. In words: Selectivity interaction (Enzymatic assay) EUB0000609a GAK.
Assay [21] addresses Dual specificity mitogen-activated protein kinase kinase 4 (Homo sapiens) (UniProt P45985). As to the kind of experiment: Selectivity interaction (Ambit kinase binding assay panel) EUB0000609a MAP2K4. As to conditions: at 10 µM.
Assay [22] concerns the target Activated CDC42 kinase 1 (Homo sapiens, UniProt Q07912). As to the kind of experiment: Selectivity interaction (Enzymatic assay) EUB0000609a TNK2.
The target in assay [23] is Non-receptor tyrosine-protein kinase TNK1 (Homo sapiens, UniProt Q13470). As to the kind of experiment: Selectivity interaction (Enzymatic assay) EUB0000609a TNK1.
Assay [24] has as its target T6, ALK tyrosine kinase receptor (Homo sapiens, UniProt Q9UM73). As to the kind of experiment: Selectivity interaction (Ambit kinase binding assay panel) EUB0000609a ALK. Particulars: at 10 µM.
The target in assay [25] is T6, ALK tyrosine kinase receptor. As to the kind of experiment: Selectivity interaction (Enzymatic assay) EUB0000609a ALK.
Assay [26] deals with T7, Leukocyte tyrosine kinase receptor (Homo sapiens, UniProt P29376). In words: Selectivity interaction (Ambit kinase binding assay panel) EUB0000609a LTK. Particulars: at 10 µM.
T7 sequence (P29376 whole entry): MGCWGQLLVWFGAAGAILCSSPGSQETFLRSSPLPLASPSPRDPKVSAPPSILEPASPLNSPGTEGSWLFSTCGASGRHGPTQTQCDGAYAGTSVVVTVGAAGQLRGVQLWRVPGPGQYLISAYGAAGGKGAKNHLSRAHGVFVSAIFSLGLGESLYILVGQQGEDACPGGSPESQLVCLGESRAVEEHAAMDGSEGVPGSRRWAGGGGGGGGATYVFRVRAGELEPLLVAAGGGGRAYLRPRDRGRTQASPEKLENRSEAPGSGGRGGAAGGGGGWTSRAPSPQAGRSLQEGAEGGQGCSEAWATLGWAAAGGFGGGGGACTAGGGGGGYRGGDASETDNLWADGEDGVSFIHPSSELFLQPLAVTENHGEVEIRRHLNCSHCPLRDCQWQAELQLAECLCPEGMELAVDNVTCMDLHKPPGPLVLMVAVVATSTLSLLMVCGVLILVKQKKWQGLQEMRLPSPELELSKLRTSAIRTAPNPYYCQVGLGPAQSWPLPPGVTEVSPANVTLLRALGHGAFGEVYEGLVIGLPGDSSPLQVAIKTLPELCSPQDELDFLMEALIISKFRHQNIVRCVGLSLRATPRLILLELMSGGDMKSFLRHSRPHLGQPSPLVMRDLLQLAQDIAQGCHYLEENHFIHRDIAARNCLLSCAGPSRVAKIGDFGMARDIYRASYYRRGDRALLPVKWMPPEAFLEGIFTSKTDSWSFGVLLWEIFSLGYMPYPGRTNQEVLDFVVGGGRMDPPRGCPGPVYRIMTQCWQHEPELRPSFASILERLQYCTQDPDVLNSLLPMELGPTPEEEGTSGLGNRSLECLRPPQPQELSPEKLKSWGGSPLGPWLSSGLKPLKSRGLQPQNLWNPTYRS
For assay [27], the target named is T7, Leukocyte tyrosine kinase receptor. As to the kind of experiment: Selectivity interaction (Enzymatic assay) EUB0000609a LTK.
Assay [28] deals with Focal adhesion kinase 1 (Homo sapiens, UniProt Q05397). As to the kind of experiment: Selectivity interaction (Enzymatic assay) EUB0000609a PTK2.
Assay [29] deals with T8, Protein-tyrosine kinase 2-beta (Homo sapiens, UniProt Q14289). As to the kind of experiment: Selectivity interaction (Ambit kinase binding assay panel) EUB0000609a PTK2B. Particulars: at 10 µM.
The target of assay [30] is T8, Protein-tyrosine kinase 2-beta. In words: Selectivity interaction (Enzymatic assay) EUB0000609a PTK2B.
Assay [31] concerns the target T9, Insulin-like growth factor 1 receptor (Homo sapiens, UniProt P08069). As to the kind of experiment: Selectivity interaction (Ambit kinase binding assay panel) EUB0000609a IGF1R. Particulars: at 10 µM.
Assay [32] deals with T9, Insulin-like growth factor 1 receptor. As to the kind of experiment: Selectivity interaction (Enzymatic assay) EUB0000609a IGF1R.
Assay [33] addresses T10, Insulin receptor (Homo sapiens, UniProt P06213). In words: Selectivity interaction (Ambit kinase binding assay panel) EUB0000609a INSR. As to conditions: at 10 µM.
Assay [34] deals with T10, Insulin receptor. In words: Selectivity interaction (Enzymatic assay) EUB0000609a INSR.
Assay [35] addresses T11, Insulin receptor-related protein (Homo sapiens, UniProt P14616). As to the kind of experiment: Selectivity interaction (Ambit kinase binding assay panel) EUB0000609a INSRR. As to conditions: at 10 µM.
The target in assay [36] is T11, Insulin receptor-related protein. As to the kind of experiment: Selectivity interaction (Enzymatic assay) EUB0000609a INSRR.
Assay [37] has as its target Serine/threonine-protein kinase N2 (Homo sapiens) (UniProt Q16513). In words: Selectivity interaction (Ambit kinase binding assay panel) EUB0000609a PKN2. Particulars: at 10 µM.

T10 sequence (P06213 28-758 limits assumed): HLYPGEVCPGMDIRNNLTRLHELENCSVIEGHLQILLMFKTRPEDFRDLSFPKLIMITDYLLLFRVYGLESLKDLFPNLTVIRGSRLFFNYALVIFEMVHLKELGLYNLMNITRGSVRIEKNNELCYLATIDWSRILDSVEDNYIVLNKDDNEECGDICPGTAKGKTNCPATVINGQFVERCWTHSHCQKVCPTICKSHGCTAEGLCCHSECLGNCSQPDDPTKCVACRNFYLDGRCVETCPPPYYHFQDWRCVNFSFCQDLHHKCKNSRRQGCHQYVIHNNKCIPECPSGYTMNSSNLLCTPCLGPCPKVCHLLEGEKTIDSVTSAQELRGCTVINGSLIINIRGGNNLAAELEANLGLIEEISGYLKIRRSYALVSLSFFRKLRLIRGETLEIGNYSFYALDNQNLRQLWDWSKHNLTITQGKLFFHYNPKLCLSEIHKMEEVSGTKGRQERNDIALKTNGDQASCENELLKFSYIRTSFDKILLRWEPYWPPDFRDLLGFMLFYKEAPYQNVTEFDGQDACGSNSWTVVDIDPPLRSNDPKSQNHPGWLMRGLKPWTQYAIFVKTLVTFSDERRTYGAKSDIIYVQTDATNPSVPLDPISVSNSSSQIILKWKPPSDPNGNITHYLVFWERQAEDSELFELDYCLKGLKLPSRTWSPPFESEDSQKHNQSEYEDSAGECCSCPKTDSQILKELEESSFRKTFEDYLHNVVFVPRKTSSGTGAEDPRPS
T10 sequence (P06213 763-1382 limits assumed): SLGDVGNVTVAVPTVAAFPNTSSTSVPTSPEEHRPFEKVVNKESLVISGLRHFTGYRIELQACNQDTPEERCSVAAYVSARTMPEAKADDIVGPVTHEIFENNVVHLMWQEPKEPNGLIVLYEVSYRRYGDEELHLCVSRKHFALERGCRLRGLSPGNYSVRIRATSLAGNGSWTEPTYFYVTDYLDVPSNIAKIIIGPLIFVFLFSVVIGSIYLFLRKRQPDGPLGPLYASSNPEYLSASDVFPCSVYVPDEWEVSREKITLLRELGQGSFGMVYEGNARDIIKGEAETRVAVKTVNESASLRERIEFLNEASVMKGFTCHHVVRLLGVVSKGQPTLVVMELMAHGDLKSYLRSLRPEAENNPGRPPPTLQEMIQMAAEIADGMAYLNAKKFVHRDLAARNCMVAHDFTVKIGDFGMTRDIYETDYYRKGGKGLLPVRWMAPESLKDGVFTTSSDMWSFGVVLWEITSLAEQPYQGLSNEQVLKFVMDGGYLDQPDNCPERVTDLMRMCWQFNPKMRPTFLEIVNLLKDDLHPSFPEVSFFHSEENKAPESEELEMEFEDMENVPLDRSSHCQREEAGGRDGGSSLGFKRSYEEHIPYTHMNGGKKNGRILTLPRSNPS
T9 sequence (P08069 31-736 limits assumed): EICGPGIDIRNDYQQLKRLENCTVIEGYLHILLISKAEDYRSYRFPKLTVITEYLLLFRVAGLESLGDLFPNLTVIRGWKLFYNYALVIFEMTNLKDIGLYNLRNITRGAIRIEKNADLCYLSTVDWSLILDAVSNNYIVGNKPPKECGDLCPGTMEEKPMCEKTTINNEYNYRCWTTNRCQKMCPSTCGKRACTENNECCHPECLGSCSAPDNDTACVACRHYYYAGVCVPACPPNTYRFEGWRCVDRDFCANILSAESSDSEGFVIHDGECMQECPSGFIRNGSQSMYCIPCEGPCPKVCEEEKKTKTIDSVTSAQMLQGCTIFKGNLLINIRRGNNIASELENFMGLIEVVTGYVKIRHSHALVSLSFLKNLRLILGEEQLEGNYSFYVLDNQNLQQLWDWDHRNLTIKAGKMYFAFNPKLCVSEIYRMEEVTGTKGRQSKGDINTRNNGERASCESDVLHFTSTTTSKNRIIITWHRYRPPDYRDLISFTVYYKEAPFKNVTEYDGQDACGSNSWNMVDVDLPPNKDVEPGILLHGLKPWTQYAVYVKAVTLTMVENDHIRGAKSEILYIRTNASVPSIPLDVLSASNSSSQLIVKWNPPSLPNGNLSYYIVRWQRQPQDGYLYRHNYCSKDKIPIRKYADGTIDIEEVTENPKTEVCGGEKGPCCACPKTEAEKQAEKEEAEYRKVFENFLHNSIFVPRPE
T9 sequence (P08069 741-1367 limits assumed): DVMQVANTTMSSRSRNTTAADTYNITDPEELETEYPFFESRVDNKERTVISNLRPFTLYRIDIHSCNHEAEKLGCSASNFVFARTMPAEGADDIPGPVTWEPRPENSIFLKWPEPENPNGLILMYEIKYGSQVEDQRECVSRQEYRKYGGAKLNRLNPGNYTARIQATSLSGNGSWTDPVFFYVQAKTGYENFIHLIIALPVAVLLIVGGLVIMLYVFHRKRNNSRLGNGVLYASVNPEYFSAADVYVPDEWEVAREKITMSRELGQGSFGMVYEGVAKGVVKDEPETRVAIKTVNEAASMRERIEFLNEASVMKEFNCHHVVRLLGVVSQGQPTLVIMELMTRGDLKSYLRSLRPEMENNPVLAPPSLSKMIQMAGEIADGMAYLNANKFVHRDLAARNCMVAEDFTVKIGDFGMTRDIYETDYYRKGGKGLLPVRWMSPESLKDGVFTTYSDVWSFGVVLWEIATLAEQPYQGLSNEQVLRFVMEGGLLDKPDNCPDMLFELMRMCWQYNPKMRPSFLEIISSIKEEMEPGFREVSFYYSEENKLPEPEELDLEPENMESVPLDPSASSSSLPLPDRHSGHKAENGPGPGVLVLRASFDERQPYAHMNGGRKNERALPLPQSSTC

For the compound `CCOc1cc(N2CCC(O)CC2)ccc1Nc1ncc2c(n1)N(C1CCCC1)CCC(=O)N2C`, the IC50 in [1] turned out to be 5000 nM; in assay [2] it was 140 nM; in assay [3], 61 nM; in assay [4] it was 1600 nM; in [5], 3100 nM.
Regarding `O=S(=O)(NC1CCC(c2cc(F)ccc2F)(S(=O)(=O)c2ccc(Cl)cc2)CC1)C(F)(F)F` (configuration not stated) [MRK-560], in assay [6], the IC50 is 213 nM. For the same compound, the % of control amounted to 0% in assay [7]; 0% in assay [8]; 5% in assay [9]; 36% in assay [10]; 0% in assay [11]; 0% in assay [12].
In the case of `COc1cc(N2CCC(O)CC2)ccc1Nc1cc(Nc2ccccc2S(=O)(=O)C(C)C)c2cc[nH]c2n1`, the % of control is 0.5% in assay [13]; 7.3% in [14]; 6% in assay [16]; 5.2% in assay [18]; 5.4% in assay [19]; 6.2% in assay [21]. Further, the % of control was 8.9% in [24]; 1.2% in assay [26]; 0.5% in [29]; 0.9% in assay [31]; 0.15% in assay [33]; 2% in [35]. The compound further gave a % of control in assay [37] of 0.1%. Besides, the IC50 in assay [15] stood at 1900 nM; in assay [17] it was 2900 nM; in [20], 1100 nM; in assay [22] it was 3100 nM; in assay [23] it was 2600 nM; in assay [25], 21 nM. Besides, the IC50 in assay [27] was found to be 29 nM; in assay [28], 440 nM; in [30] it was 280 nM; in assay [32], 750 nM; in [34] it was 470 nM; in assay [36], 1200 nM.

As usually defined, the IC50 is the concentration needed to halve the response being measured.
